Source: patent US6825350B2, “Sulfonamide and sulfamide substituted imidazoquinolines and methods for the treatment of periodontal disease using these and other immune response modifiers” (3M Innovative Properties Company, priority 1999, dated 2004)
Where a name gives a salt, the structure may show the parent alone.

Assays:
[1] = tested on: interferon (α); assay: Cytokine induction in human cells: interferon (α) by ELISA; type: cell-based; conditions: Homo sapiens, PBMC, human PBMCs, 18 to 24 hours incubation, ELISA of culture supernatant; read-out: Lowest Effective Concentration (μM) Interferon
[2] = tested on: tumor necrosis factor (α); assay: Cytokine induction in human cells: tumor necrosis factor (α) by ELISA; type: cell-based; conditions: Homo sapiens, PBMC, human PBMCs, 18 to 24 hours incubation, ELISA of culture supernatant; read-out: Lowest Effective Concentration (μM) Tumor Necrosis Factor

Structure (SMILES)	minimal effective concentration [1]	minimal effective concentration [2]
CCCCc1nc2c(N)nc3ccccc3c2n1CCCCNS(=O)(=O)c1ccc(Cl)s1 [Example 101]	0.01 µM	10 µM
CCCCc1nc2c(N)nc3ccccc3c2n1CCNS(=O)(=O)c1cccc2c(N(C)C)cccc12 [Example 33]	1.11 µM	10 µM
COCCc1nc2c(N)nc3ccccc3c2n1CCCCNS(=O)(=O)N(C)C [Example 218]	0.0001 µM	1 µM
CCCCc1nc2c(N)nc3ccccc3c2n1CCCCNS(=O)(=O)c1ccc(OC)c(OC)c1 [Example 81]	0.001 µM	1 µM
CCCCc1nc2c(N)nc3ccccc3c2n1CCCCNS(=O)(=O)c1c(C)c(C)c(C)c(C)c1C [Example 107]	1 µM	> 10 µM
CCCCc1nc2c(N)nc3ccccc3c2n1CCCCNS(=O)(=O)C[C@]12CC[C@H](CC1=O)C2(C)C [Example 73]	0.001 µM	0.1 µM
CCCCS(=O)(=O)NCCCCn1cnc2c(N)nc3ccccc3c21 [Example 13, N^1-[4-(4-Amino-1H-imidazo[4,5-c]quinolin-1-y)butyl]-1-butanesulfonamide]	10 µM	> 30 µM
CCOCc1nc2c(N)nc3ccccc3c2n1CCNS(=O)(=O)c1cccs1 [Example 109]	1 µM	10 µM
CCCCc1nc2c(N)nc3ccccc3c2n1CCCCNS(=O)(=O)c1ccccc1OC(F)(F)F [Example 91]	0.01 µM	1 µM
COCCc1nc2c(N)nc3ccccc3c2n1CCCCNS(=O)(=O)c1ccc(Cl)cc1 [Example 128]	0.0001 µM	1 µM
CCCCc1nc2c(N)nc3ccccc3c2n1CCCCNS(=O)(=O)C(F)(F)F [Example 53]	0.01 µM	3.33 µM
CCCCc1nc2c(N)nc3ccccc3c2n1CCNS(=O)(=O)c1cccs1 [Example 19]	0.12 µM	3.33 µM
CCCCc1nc2c(N)nc3ccccc3c2n1CCNS(=O)(=O)/C=C/c1ccccc1 [Example 29]	0.37 µM	10 µM
CCCCc1nc2c(N)nc3ccccc3c2n1CCCCNS(=O)(=O)c1ccccc1C(F)(F)F [Example 103]	0.1 µM	10 µM
COCCc1nc2c(N)nc3ccccc3c2n1CCCCNS(=O)(=O)c1ccccc1Cl [Example 127]	0.0001 µM	10 µM
CCCCc1nc2c(N)nc3ccccc3c2n1CCNS(=O)(=O)c1ccc(Br)cc1 [Example 21]	1.11 µM	30 µM
COc1ccc(S(=O)(=O)NCCCCn2cnc3c(N)nc4c(c32)CCCC4)cc1 [Example 65]	3.33 µM	> 30 µM
COCCc1nc2c(N)nc3c(c2n1CCCCNS(=O)(=O)C[C@@]12CCC(CC1=O)C2(C)C)CCCC3 [Example 212]	0.0001 µM	0.01 µM
Cc1cc(C)c(S(=O)(=O)NCCCCn2cnc3c(N)nc4c(c32)CCCC4)c(C)c1 [Example 63]	> 30 µM	> 30 µM

Structure (SMILES)	minimal effective concentration [1]	minimal effective concentration [2]
CC(C)(C)c1ccc(S(=O)(=O)NCCCCn2cnc3c(N)nc4c(c32)CCCC4)cc1 [Example 62]	> 30 µM	> 30 µM
CCCCc1nc2c(N)nc3c(c2n1CCCCNS(=O)(=O)N(C)C)CCCC3 [Example 220]	0.0001 µM	1 µM
COCCc1nc2c(N)nc3ccccc3c2n1CCCCNS(=O)(=O)c1cccs1 [Example 112]	0.0001 µM	> 10 µM
CC(C)S(=O)(=O)NCCCCn1cnc2c(N)nc3c(c21)CCCC3 [Example 55]	3.33 µM	> 30 µM
CCCCc1nc2c(N)nc3ccccc3c2n1CCCCNS(=O)(=O)c1cccc([N+](=O)[O-])c1 [Example 83]	0.001 µM	1 µM
COCCc1nc2c(N)nc3ccccc3c2n1CCCCNS(=O)(=O)Cc1ccccc1[N+](=O)[O-] [Example 138]	0.0001 µM	10 µM
CCCCc1nc2c(N)nc3ccccc3c2n1CCCCNS(=O)(=O)c1cccc(F)c1 [Example 95]	0.001 µM	1 µM
CCCCc1nc2c(N)nc3ccccc3c2n1CCCCNS(=O)(=O)C[C@]12CC[C@@H](CC1=O)C2(C)C [Example 89]	0.001 µM	1 µM
COCCc1nc2c(N)nc3ccccc3c2n1CCCCNS(=O)(=O)c1cccc2c(N(C)C)cccc12 [Example 114]	0.01 µM	> 10 µM
CCCS(=O)(=O)NCCCCn1cnc2c(N)nc3c(c21)CCCC3 [Example 54]	10 µM	> 30 µM
CCCCc1nc2c(N)nc3ccccc3c2n1CCCCNS(=O)(=O)c1cccc(OC)c1 [Example 104]	0.01 µM	> 10 µM
Nc1nc2c(c3c1ncn3CCCCNS(=O)(=O)c1ccc(I)cc1)CCCC2 [Example 61]	3.33 µM	> 30 µM
Nc1nc2c(c3c1ncn3CCCCNS(=O)(=O)c1ccc(Cl)cc1)CCCC2 [Example 59]	3.33 µM	> 30 µM
CCCCc1nc2c(N)nc3ccccc3c2n1CCCCNS(=O)(=O)CCC [Example 51]	0.0015 µM	0.37 µM
CCCCc1nc2c(N)nc3ccccc3c2n1CCNS(=O)(=O)c1c(C)cc(C)cc1C [Example 26]	10 µM	> 30 µM
CCCCc1nc2c(N)nc3ccccc3c2n1CCNS(=O)(=O)CCC [Example 17]	1.11 µM	3.33 µM
Nc1nc2c(c3c1ncn3CCCCNS(=O)(=O)Cc1ccccc1)CCCC2 [Example 67]	10 µM	> 30 µM
CCCCc1nc2c(N)nc3ccccc3c2n1CCNS(=O)(=O)c1ccc(OC)cc1 [Example 27]	1.11 µM	30 µM
CCCCc1nc2c(N)nc3ccccc3c2n1CCNS(=O)(=O)Cc1ccccc1 [Example 28]	1.11 µM	30 µM

Structure (SMILES)	minimal effective concentration [1]	minimal effective concentration [2]
CCCCc1nc2c(N)nc3ccccc3c2n1CCCCNS(=O)(=O)c1c(C)noc1C [Example 94]	0.001 µM	1 µM
COCCc1nc2c(N)nc3ccccc3c2n1CCCCNS(=O)(=O)NC(C)(C)C [Example 230]	0.0001 µM	1 µM
COCCc1nc2c(N)nc3c(c2n1CCCCNS(=O)(=O)c1cccc2c(N(C)C)cccc12)CCCC3 [Example 213]	0.0001 µM	1 µM
CCOCc1nc2c(N)nc3ccccc3c2n1CCNS(=O)(=O)N(C)C [Example 217]	1 µM	> 10 µM
CCCCc1nc2c(N)nc3ccccc3c2n1CCCCNS(=O)(=O)c1ccc(C)cc1 [Example 40]	0.0015 µM	3.33 µM
COc1ccc(Br)cc1S(=O)(=O)NCCCCn1cnc2c(N)nc3c(c21)CCCC3 [Example 66]	> 30 µM	30 µM
CCCCc1nc2c(N)nc3ccccc3c2n1CCCCNS(=O)(=O)c1c(F)c(F)c(F)c(F)c1F [Example 90]	0.01 µM	1 µM
CN(C)c1cccc2c(S(=O)(=O)NCCCCn3cnc4c(N)nc5c(c43)CCCC5)cccc12 [Example 71]	> 30 µM	30 µM
CCCCCCCCCCCCCCCCS(=O)(=O)NCCCCn1c(CCCC)nc2c(N)nc3ccccc3c21 [Example 75]	> 10 µM	> 10 µM
COCCc1nc2c(N)nc3ccccc3c2n1CCCCN(C)S(=O)(=O)c1c(C)noc1C [Example 215, N-[4-(4-Amino-2-(2-methoxyethyl)-1H-imidazo[4,5-c]quinolin-1-yl)butyl]-N-methyl-3,5-dimethylisooxazolo-4-sulfonamide Trifluoroacetate]	0.01 µM	1 µM
CCCCc1nc2c(N)nc3ccccc3c2n1CCCCNS(=O)(=O)CCCCl [Example 82]	0.001 µM	1 µM
CCCCc1nc2c(N)nc3ccccc3c2n1CCNS(=O)(=O)c1ccc(C)cc1 [Example 23]	0.12 µM	10 µM
CCCCc1nc2c(N)nc3c(c2n1CCCCNS(=O)(=O)c1cccc2c(N(C)C)cccc12)CCCC3 [Example 206]	1 µM	> 10 µM
CCCS(=O)(=O)NCCCCn1c(CCOC)nc2c(N)nc3ccccc3c21 [Example 116]	0.001 µM	1 µM
COCCc1nc2c(N)nc3ccccc3c2n1CCCCNS(=O)(=O)c1ccc(OC(F)(F)F)cc1 [Example 154]	0.001 µM	10 µM
COCCc1nc2c(N)nc3ccccc3c2n1CCCCNS(=O)(=O)C[C@@]12CCC(CC1=O)C2(C)C [Example 200]	0.01 µM	0.1 µM
CCCCc1nc2c(N)nc3ccccc3c2n1CCCCNS(=O)(=O)c1ccccc1Br [Example 78]	0.001 µM	0.1 µM
COCCc1nc2c(N)nc3ccccc3c2n1CCCCNS(=O)(=O)c1ccc(Br)cc1 [Example 152]	0.0001 µM	10 µM
